Measured values published in patent publication US20110218188A1, “SUBSTITUTED (PYRIDYL)-AZINYLAMINE DERIVATIVES AS FUNGICIDES” (priority 2008, published 2011).

assay: Measurement of logP values by HPLC on reversed phase columns (EEC directive 79/831 Annex V.A8); format: physicochemical; details: pH 2.7

CCN(C)C(=S)c1cc(-c2ncnc(Nc3ccc(F)c(Cl)c3)n2)ccn1 [Example B209] and CCN(C)C(=S)c1cc(-c2ncnc(Nc3cccc(SC)c3)n2)ccn1 [Example B223] are within 0.2 log units of each other in logP: 3.33 for the first, 3.17 for the second.

Compared with CCN(C)C(=O)c1cc(-c2ncnc(Nc3cccc(SC)c3)n2)ccn1 [Example B222], CCN(C)C(=O)c1cc(-c2ncnc(Nc3cccc(OC)c3)n2)ccn1 [Example B278] is lower in logP: 2.6 for the first, 2.26 for the second.

Compared with COCC(C)NC(=O)c1cc(-c2ncnc(Nc3ccc(C)c(Cl)c3)n2)ccn1 (stereo not shown) [Example B225], COCCNC(=O)c1cc(-c2ncnc(Nc3ccc(C)c(Cl)c3)n2)ccn1 [Example B227] is lower in logP: 3.8 for the first, 3.48 for the second.

Going from Cc1ccc(Nc2ncnc(-c3ccnc(C(=O)NC4CC4)c3)n2)cc1Cl [Example B226] to CCN(C)C(=O)c1cc(-c2ncnc(Nc3ccc(C)c(Cl)c3)n2)ccn1 [Example B236], the logP falls from 3.62 to 3.02.

Compared with CN(CCC#N)C(=O)c1cc(-c2ncnc(Nc3cc(F)ccc3F)n2)ccn1 [Example B237], CC(C)CN(C)C(=O)c1cc(-c2ncnc(Nc3cc(F)ccc3F)n2)ccn1 [Example B238] is higher in logP: 2.1 for the first, 2.9 for the second.

Compared with COCc1cccc(Nc2ncnc(-c3ccnc(C(=O)N(C)CCC#N)c3)n2)c1 [Example B239], CCCN(C)C(=O)c1cc(-c2ncnc(Nc3cccc(COC)c3)n2)ccn1 [Example B241] is higher in logP: 1.94 for the first, 2.48 for the second.

Going from CCN(CC)C(=O)c1cc(-c2ncnc(Nc3cccc(COC)c3)n2)ccn1 [Example B240] to CCN(C)C(=O)c1cc(-c2ncnc(Nc3cccc(COC)c3)n2)ccn1 [Example B245], the logP falls from 2.48 to 2.17.

First: COCc1cccc(Nc2ncnc(-c3ccnc(C(=O)N(C)CC4CC4)c3)n2)c1 [Example B242]
Second: COCc1cccc(Nc2ncnc(-c3ccnc(C(=S)N(C)CC4CC4)c3)n2)c1 [Example B249]
The logP of the first is lower: 2.58 for the first, 3.12 for the second.

First: COCc1cccc(Nc2ncnc(-c3ccnc(C(=O)N(C)C)c3)n2)c1 [Example B243]
Second: COCc1cccc(Nc2ncnc(-c3ccnc(C(=O)N(C)C(C)C)c3)n2)c1 [Example B246]
The logP of the first is lower: 1.91 for the first, 2.42 for the second.

First: COCc1cccc(Nc2ncnc(-c3ccnc(C(=O)N(C)CC(C)C)c3)n2)c1 [Example B244]
Second: COc1cccc(Nc2ncnc(-c3ccnc(C(=O)N(C)CC(C)C)c3)n2)c1 [Example B277]
The logP of the first is lower: 2.66 for the first, 2.90 for the second.

COCCN(C)C(=O)c1cc(-c2ncnc(Nc3cccc(COC)c3)n2)ccn1 [Example B247] and COCCN(C)C(=O)c1cc(-c2ncnc(Nc3cccc(OC)c3)n2)ccn1 [Example B280] are within 0.2 log units of each other in logP: 2.05 for the first, 2.14 for the second.

Compared with CCN(C)C(=S)c1cc(-c2ncnc(Nc3cccc(COC)c3)n2)ccn1 [Example B248], CCCN(C)C(=S)c1cc(-c2ncnc(Nc3cccc(COC)c3)n2)ccn1 [Example B250] is higher in logP: 2.66 for the first, 3.05 for the second.

First: CCN(C)C(=O)c1cc(-c2ncnc(Nc3cccc(S(F)(F)(F)(F)F)c3)n2)ccn1 [Example B252]
Second: CCN(C)C(=O)c1cc(-c2ncnc(Nc3cccc(C(F)(F)F)c3)n2)ccn1 [Example B256]
The logP of the first is higher: 3.06 for the first, 2.86 for the second.

Going from CCOc1cccc(Nc2ncnc(-c3ccnc(C(=O)N(C)CC)c3)n2)c1 [Example B254] to CCOc1cccc(Nc2ncnc(-c3ccnc(C(=S)N(C)CC)c3)n2)c1 [Example B255], the logP rises from 2.6 to 3.15.

CCN(C)C(=S)c1cc(-c2ncnc(Nc3cccc(C(F)(F)F)c3)n2)ccn1 [Example B257] and CCN(C)C(=S)c1cc(-c2ncnc(Nc3cccc(OC(F)(F)F)c3)n2)ccn1 [Example B271] are within 0.2 log units of each other in logP: 3.41 for the first, 3.57 for the second.

Going from CCN(C)C(=O)c1cc(-c2ncnc(Nc3cccc(C(C)C)c3)n2)ccn1 [Example B258] to CCN(C)C(=S)c1cc(-c2ncnc(Nc3cccc(C(C)C)c3)n2)ccn1 [Example B259], the logP rises from 3.11 to 3.7.

CCN(C)C(=O)c1cc(-c2ncnc(Nc3cccc(OC(F)(F)C(F)F)c3)n2)ccn1 [Example B260] and CCN(C)C(=O)c1cc(-c2ncnc(Nc3cccc(OC(F)(F)F)c3)n2)ccn1 [Example B268] are within 0.2 log units of each other in logP: 2.92 for the first, 3 for the second.

Going from CCN(C)C(=S)c1cc(-c2ncnc(Nc3cccc(OC(F)(F)C(F)F)c3)n2)ccn1 [Example B261] to CCN(C)C(=S)c1cc(-c2ncnc(Nc3cccc(OC)c3)n2)ccn1 [Example B281], the logP falls from 3.41 to 2.78.

First: CN(CCC#N)C(=O)c1cc(-c2ncnc(Nc3cccc(OC(F)(F)F)c3)n2)ccn1 [Example B262]
Second: CCCN(C)C(=O)c1cc(-c2ncnc(Nc3cccc(OC(F)(F)F)c3)n2)ccn1 [Example B264]
The logP of the first is lower: 2.8 for the first, 3.37 for the second.

First: CCN(CC)C(=O)c1cc(-c2ncnc(Nc3cccc(OC(F)(F)F)c3)n2)ccn1 [Example B263]
Second: CN(C)C(=O)c1cc(-c2ncnc(Nc3cccc(OC(F)(F)F)c3)n2)ccn1 [Example B266]
The logP of the first is higher: 3.39 for the first, 2.7 for the second.

First: CN(CC1CC1)C(=O)c1cc(-c2ncnc(Nc3cccc(OC(F)(F)F)c3)n2)ccn1 [Example B265]
Second: CC(C)CN(C)C(=O)c1cc(-c2ncnc(Nc3cccc(OC(F)(F)F)c3)n2)ccn1 [Example B267]
The logP of the first is lower: 3.48 for the first, 3.73 for the second.

Compared with COCCN(C)C(=O)c1cc(-c2ncnc(Nc3cccc(OC(F)(F)F)c3)n2)ccn1 [Example B270], CCCN(C)C(=O)c1cc(-c2ncnc(Nc3cccc(OC)c3)n2)ccn1 [Example B274] is lower in logP: 2.86 for the first, 2.61 for the second.

COc1cccc(Nc2ncnc(-c3ccnc(C(=O)N(C)CCC#N)c3)n2)c1 [Example B272] and CN(CCC#N)C(=O)c1cc(-c2ncnc(Nc3cccc(C(F)F)c3)n2)ccn1 [Example B284] are within 0.2 log units of each other in logP: 2.11 for the first, 2.25 for the second.

Compared with CCN(CC)C(=O)c1cc(-c2ncnc(Nc3cccc(OC)c3)n2)ccn1 [Example B273], CCN(CC)C(=S)c1cc(-c2ncnc(Nc3cccc(OC)c3)n2)ccn1 [Example B282] is higher in logP: 2.59 for the first, 3.15 for the second.

COc1cccc(Nc2ncnc(-c3ccnc(C(=O)N(C)CC4CC4)c3)n2)c1F [Example B275] and CN(CC1CC1)C(=O)c1cc(-c2ncnc(Nc3cccc(C(F)F)c3)n2)ccn1 [Example B287] are within 0.2 log units of each other in logP: 2.7 for the first, 2.82 for the second.

Compared with COc1cccc(Nc2ncnc(-c3ccnc(C(=O)N(C)C)c3)n2)c1 [Example B276], COc1cccc(Nc2ncnc(-c3ccnc(C(=O)N(C)C(C)C)c3)n2)c1 [Example B279] is higher in logP: 2.01 for the first, 2.51 for the second.

Going from CCCN(C)C(=S)c1cc(-c2ncnc(Nc3cccc(OC)c3)n2)ccn1 [Example B283] to CCCN(C)C(=O)c1cc(-c2ncnc(Nc3cccc(C(F)F)c3)n2)ccn1 [Example B286], the logP falls from 3.15 to 2.73.

Going from CCN(CC)C(=O)c1cc(-c2ncnc(Nc3cccc(C(F)F)c3)n2)ccn1 [Example B285] to CN(C)C(=O)c1cc(-c2ncnc(Nc3cccc(C(F)F)c3)n2)ccn1 [Example B288], the logP falls from 2.73 to 2.17.

For CC(C)CN(C)C(=O)c1cc(-c2ncnc(Nc3cccc(C(F)F)c3)n2)ccn1 [Example B289], the logP was 3.04.

For CCN(C)C(=S)c1cc(-c2ncnc(Nc3cccc(S(F)(F)(F)(F)F)c3)n2)ccn1 [Example B253, N-ethyl-N-methyl-4-(4-{[3-(pentafluoro-lambda^6-sulfanyl)phenyl]amino}-1,3,5-triazin-2-yl)pyridine-2-carbothioamide], the chromatographic logP was 3.57.
